Numbered stars: 1 amine (or outer) side, 2 acyl side, 3 side chain; on linkers, the order of the positions; unused ones are H or OH. Bridge positions count the residues as written; N and C are the ends. Square brackets hold non-standard residues; d marks the D form. Peptide text beside a SMILES is read from it. Suc = O=C(CCC(=O)[*:2])[*:1]; Dab = NCC[C@H](N)C(=O)O
Biological target: hMCR-4 (Homo sapiens (Human), UniProt P32245)
Assay: Competitive inhibition binding assay using [I125]-NDP-α-MSH, hMCR-4
Conditions: membrane homogenates of HEK-293 cells, human recombinant receptor, averaged, read-out: MC-4 Ki (average)
Experimental: A competitive inhibition binding assay was performed using membrane homogenates prepared from HEK-293 cells that express recombinant hMCR-1a or hMCR-4 (in each instance where the h prefix refers to human), or alternatively membrane homogenates from B16-F10 mouse melanoma cells containing endogenous murine MCR-1. In the examples that follow, all MCR-1 and MCR-4 values are for human recombinant receptors, unless otherwise noted. Assays were performed in 96 well polypropylene round-bottom plates (VWR catalog number 12777-030). […] After incubation for 90 minutes at 37° C., the assay mixture was filtered onto GF/B Unifilter plates (Perkin-Elmer catalog number 6005177) and washed with 3 mL of ice-cold buffer per well. Filters were air dried and 35 μL of scintillation cocktail added to each well. Plates were counted in a Microbeta counter for bound radioactivity. […] Each assay was conducted in duplicate and the actual mean values are described, with results less than 0% reported as 0%. Ki values for peptides of the present invention were determined using Graph-Pad Prism® curve-fitting software.
(§1) Peptides of the following structures were synthesized and averaged MCR-1 and MCR-4 Ki values were determined as indicated. […] All results are expressed in nM except for Emax values, which are percentage values. Peptides with the captioned primary sequence were synthesized and purified as described in Section 5 above, with the resulting peptide having the structure depicted.

Chain of hMCR-4 (P32245 whole entry): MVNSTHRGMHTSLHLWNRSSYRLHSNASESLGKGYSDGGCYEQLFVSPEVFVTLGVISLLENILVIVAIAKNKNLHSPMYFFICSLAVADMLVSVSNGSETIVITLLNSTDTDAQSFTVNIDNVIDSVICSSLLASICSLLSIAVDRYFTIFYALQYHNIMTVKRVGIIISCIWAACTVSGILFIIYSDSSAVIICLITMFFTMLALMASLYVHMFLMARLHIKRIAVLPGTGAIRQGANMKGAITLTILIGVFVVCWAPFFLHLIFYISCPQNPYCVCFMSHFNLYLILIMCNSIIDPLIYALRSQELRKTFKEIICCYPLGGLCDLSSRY

SMILES | Ki [nM]
CCCC[C@H](NC(C)=O)C(=O)N[C@H]1CCC(=O)NCC[C@@H](C(=O)N[C@H](Cc2cccc3ccccc23)C(N)=O)NC(=O)[C@H](CCCNC(=N)N)NC(=O)[C@@H](Cc2ccccc2)NC(=O)[C@H](Cc2c[nH]cn2)NC1=O [Example 9.9, Ac-Nle-cyclo(Glu-His-D-Phe-Arg-Dab)-D-Nal 1-NH2] | 2
CCCC[C@H](NC(C)=O)C(=O)N[C@H]1CCC(=O)NCC[C@@H](C(=O)N[C@H](Cc2ccc3ccccc3c2)C(N)=O)NC(=O)[C@H](CCCNC(=N)N)NC(=O)[C@@H](Cc2ccccc2)NC(=O)[C@H](Cc2c[nH]cn2)NC1=O [Example 9.11, Ac-Nle-cyclo(Glu-His-D-Phe-Arg-Dab)-D-Nal 2-NH2] | 0.095
CC(=O)N[C@H](Cc1ccccc1)C(=O)N[C@H]1CCC(=O)NCC[C@@H](C(=O)N[C@@H](Cc2c[nH]c3ccccc23)C(N)=O)NC(=O)[C@H](CCCNC(=N)N)NC(=O)[C@@H](Cc2ccccc2)NC(=O)[C@H](Cc2c[nH]cn2)NC1=O [Example 9.12, Ac-D-Phe-cyclo(Glu-His-D-Phe-Arg-Dab)-Trp-NH2] | 535
CCCC[C@H](NC(C)=O)C(=O)N[C@H]1CCNC(=O)CCC(=O)NC[C@@H](C(=O)N[C@@H](Cc2c[nH]c3ccccc23)C(N)=O)NC(=O)[C@H](CCCNC(=N)N)NC(=O)[C@@H](Cc2ccccc2)NC(=O)[C@H](Cc2c[nH]cn2)NC1=O [Example 9.29] | 325
CCCC[C@H](NC(C)=O)C(=O)N[C@H]1CCC(=O)NCCC[C@@H](C(=O)N[C@@H](Cc2c[nH]c3ccccc23)C(N)=O)NC(=O)[C@H](CCCNC(=N)N)NC(=O)[C@@H](Cc2ccccc2)NC(=O)[C@H](Cc2c[nH]cn2)NC1=O [Example 9.6, Ac-Nle-cyclo(Glu-His-D-Phe-Arg-Orn)-Trp-NH2] | 295
CCCC[C@H](NC(C)=O)C(=O)N[C@H]1CCC(=O)NCCCC[C@@H](C(=O)N[C@@H](Cc2c[nH]c3ccccc23)C(N)=O)NC(=O)[C@H](CCCNC(=N)N)NC(=O)[C@@H](Cc2ccccc2)NC(=O)[C@H](Cc2c[nH]cn2)NC1=O [Example 9.1, Ac-Nle-cyclo(Glu-His-D-Phe-Arg-Lys)-Trp-NH2] | 45
CCCC[C@H](NC(C)=O)C(=O)N[C@H]1CCC(=O)NCC[C@@H](C(=O)N[C@@H](Cc2c[nH]c3ccccc23)C(N)=O)NC(=O)[C@H](CCCNC(=N)N)NC(=O)[C@@H](Cc2ccccc2)NC(=O)[C@H](Cc2c[nH]cn2)NC1=O [Example 9.2, Ac-Nle-cyclo(Glu-His-D-Phe-Arg-Dab)-Trp-NH2] | 110
CCCC[C@H](NC(C)=O)C(=O)N[C@H]1CCC(=O)NC[C@@H](C(=O)N[C@@H](Cc2c[nH]c3ccccc23)C(N)=O)NC(=O)[C@H](CCCNC(=N)N)NC(=O)[C@@H](Cc2ccccc2)NC(=O)[C@H](Cc2c[nH]cn2)NC1=O [Example 9.3, Ac-Nle-cyclo(Glu-His-D-Phe-Arg-Dap)-Trp-NH2] | 358
CCCCCC(=O)N[C@H]1CCC(=O)NCC[C@@H](C(=O)N[C@@H](Cc2c[nH]c3ccccc23)C(N)=O)NC(=O)[C@H](CCCNC(=N)N)NC(=O)[C@@H](Cc2ccccc2)NC(=O)[C@H](Cc2c[nH]cn2)NC1=O [Example 9.17, CH3—(CH2)4—C(═O)-cyclo(Glu-His-D-Phe-Arg-Dab)-Trp-NH2] | 110
CCCC[C@H](NC(C)=O)C(=O)N[C@H]1CCC(=O)NCC[C@@H](C(=O)N[C@@H](Cc2ccc3ccccc3c2)C(N)=O)NC(=O)[C@H](CCCNC(=N)N)NC(=O)[C@@H](Cc2ccccc2)NC(=O)[C@H](Cc2c[nH]cn2)NC1=O [Example 9.10, Ac-Nle-cyclo(Glu-His-D-Phe-Arg-Dab)-Nal 2-NH2] | 3
CCCC[C@H](NC(C)=O)C(=O)N[C@H]1CNC(=O)CCC(=O)NC[C@@H](C(=O)N[C@@H](Cc2c[nH]c3ccccc23)C(N)=O)NC(=O)[C@H](CCCNC(=N)N)NC(=O)[C@@H](Cc2ccccc2)NC(=O)[C@H](Cc2c[nH]cn2)NC1=O [Example 9.28] | 680
CCCC[C@H](NC(C)=O)C(=O)N[C@H]1CCNC(=O)CCC(=O)NCC[C@@H](C(=O)N[C@@H](Cc2c[nH]c3ccccc23)C(N)=O)NC(=O)[C@H](CCCNC(=N)N)NC(=O)[C@@H](Cc2ccccc2)NC(=O)[C@H](Cc2c[nH]cn2)NC1=O [Example 9.27] | 380
CCCC[C@H](NC(C)=O)C(=O)N[C@H]1CCC(=O)NCC[C@@H](C(=O)N[C@@H](Cc2c[nH]c3ccccc23)C(N)=O)NC(=O)[C@H](CCCNC(=N)N)NC(=O)[C@H](Cc2ccccc2)NC(=O)[C@H](Cc2c[nH]cn2)NC1=O [Example 9.8, Ac-Nle-cyclo(Glu-His-Phe-Arg-Dab)-Trp-NH2] | 10000
CCCC[C@H](NC(C)=O)C(=O)N[C@H]1CCC(=O)NCC[C@@H](C(=O)N[C@H](Cc2c[nH]c3ccccc23)C(N)=O)NC(=O)[C@H](CCCNC(=N)N)NC(=O)[C@@H](Cc2ccccc2)NC(=O)[C@H](Cc2c[nH]cn2)NC1=O [Example 9.7, Ac-Nle-cyclo(Glu-His-D-Phe-Arg-Dab)-D-Trp-NH2] | 33
N=C(N)NCCC[C@@H]1NC(=O)[C@@H](Cc2ccccc2)NC(=O)[C@H](Cc2c[nH]cn2)NC(=O)CCC(=O)NCC[C@@H](C(=O)N[C@@H](Cc2c[nH]c3ccccc23)C(N)=O)NC1=O [Example 9.14, cyclo(Suc-His-Phe-Arg-Dab)-Trp-NH2] (H[dF]R[Dab]W-NH2; linker N-4 via Suc) | 10000

More lines, now with the values ahead:

Ki [nM] | SMILES
455 | CCCC[C@H](NC(C)=O)C(=O)N[C@H]1CCC(=O)NCC[C@@H](C(=O)N[C@@H](Cc2c[nH]c3ccccc23)C(N)=O)NC(=O)[C@H](CCCNC(=N)N)NC(=O)[C@@H](Cc2ccccc2)NC(=O)[C@H](C)NC1=O [Example 9.36, Ac-Nle-cyclo(Glu-Ala-D-Phe-Arg-Dab)-Trp-NH2]
98 | CCCC[C@H](NC(C)=O)C(=O)N[C@H]1CCC(=O)NCC[C@@H](C(=O)N[C@@H](Cc2c[nH]c3ccccc23)C(N)=O)NC(=O)[C@H](CCCNC(=N)N)NC(=O)[C@@H](Cc2ccccc2)NC(=O)[C@H](CCCNC(N)=O)NC1=O [Example 9.38, Ac-Nle-cyclo(Glu-Cit-D-Phe-Arg-Dab)-Trp-NH2]
10000 | CCCC[C@H](NC(C)=O)C(=O)N[C@H]1CCC(=O)NCC[C@@H](C(N)=O)NC(=O)[C@H](CCCNC(=N)N)NC(=O)[C@@H](Cc2ccccc2)NC(=O)[C@@H]2CCCN2C1=O [Example 9.65, Ac-Nle-cyclo(Glu-Pro-D-Phe-Arg-Dab)-NH2]
98 | CCCC[C@H](NC(C)=O)C(=O)N[C@H]1CCC(=O)NCC[C@@H](C(=O)N[C@@H](Cc2c[nH]c3ccccc23)C(N)=O)NC(=O)[C@H](CCCNC(=N)N)NC(=O)[C@@H](Cc2ccccc2)NC(=O)[C@H](CCN)NC1=O [Example 9.41, Ac-Nle-cyclo(Glu-Dab-D-Phe-Arg-Dab)-Trp-NH2]
20 | CCCC[C@H](NC(C)=O)C(=O)N[C@H]1CCC(=O)NCC[C@@H](C(=O)N[C@@H](Cc2c[nH]c3ccccc23)C(N)=O)NC(=O)[C@H](CCCNC(=N)N)NC(=O)[C@@H](Cc2ccccc2)NC(=O)[C@H](CCCNC(=N)N)NC1=O [Example 9.37, Ac-Nle-cyclo(Glu-Arg-D-Phe-Arg-Dab)-Trp-NH2]
95 | CCCC[C@H](NC(C)=O)C(=O)N[C@H]1CCC(=O)NCC[C@@H](C(=O)N[C@@H](Cc2c[nH]c3ccccc23)C(N)=O)NC(=O)[C@H](CCCNC(=N)N)NC(=O)[C@@H](Cc2ccccc2)NC(=O)[C@H](CCCCN)NC1=O [Example 9.40, Ac-Nle-cyclo(Glu-Lys-D-Phe-Arg-Dab)-Trp-NH2]
0.75 | CCCC[C@H](NC(C)=O)C(=O)N[C@H]1CCC(=O)NCC[C@@H](C(=O)N[C@@H](Cc2cccc3ccccc23)C(N)=O)NC(=O)[C@H](CCCNC(=N)N)NC(=O)[C@@H](Cc2ccccc2)NC(=O)[C@H](Cc2c[nH]cn2)NC1=O [Example 9.30, Ac-Nle-cyclo(Glu-His-D-Phe-Arg-Dab)-Nal 1-NH2]
45 | CCCC[C@H](NC(C)=O)C(=O)N[C@H]1CCC(=O)NCC[C@@H](C(=O)N[C@@H](Cc2c[nH]c3ccccc23)C(N)=O)NC(=O)[C@H](CCCNC(=N)N)NC(=O)[C@@H](Cc2ccccc2)NC(=O)[C@H](CCCN)NC1=O [Example 9.42, Ac-Nle-cyclo(Glu-Orn-D-Phe-Arg-Dab)-Trp-NH2]

Biological target: hMCR-1 (Homo sapiens (Human), UniProt Q01726)
Sequence (Q01726 whole entry): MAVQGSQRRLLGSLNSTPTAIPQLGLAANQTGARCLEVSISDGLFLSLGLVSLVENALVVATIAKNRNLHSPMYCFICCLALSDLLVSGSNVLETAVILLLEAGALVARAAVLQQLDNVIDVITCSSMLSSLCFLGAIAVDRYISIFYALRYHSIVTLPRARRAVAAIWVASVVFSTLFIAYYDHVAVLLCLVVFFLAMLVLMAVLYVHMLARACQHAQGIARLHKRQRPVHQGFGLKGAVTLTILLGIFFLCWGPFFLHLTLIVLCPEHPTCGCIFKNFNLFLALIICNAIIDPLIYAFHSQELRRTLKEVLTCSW
Assay: Assay for agonist activity: intracellular cAMP accumulation in HBL human melanoma cells
Assay type: cell-based
Conditions: HBL cells, maximum efficacy compared to reference agonist NDP-α-MSH
Experimental: Confluent HBL cells that express hMCR-1 or HEK-293 cells that express recombinant hMCR-4 were detached from culture plates by incubation in enzyme-free cell dissociation buffer. Dispersed cells were suspended in Earle's Balanced Salt Solution containing 10 mM HEPES (pH 7.5), 1 mM MgCl2, 1 mM glutamine, 0.5% albumin and 0.3 mM 3-isobutyl-1-methyl-xanthine (IBMX), a phosphodiesterase inhibitor. The cells were plated in 96-well plates at a density of 0.4×10^5 cells per well for HBL cells and 0.5×10^5 cells per well for HEK-293 cells and pre-incubated for 10 minutes. Cells were exposed for 15 minutes at 37° C. to peptides of the present invention dissolved in DMSO (final DMSO concentration of 1%) at a concentration range of 0.05-5000 nM in a total assay volume of 200 μL. […] Data analysis was performed by nonlinear regression analysis with Graph-Pad Prism® software.
as §1

SMILES | MC-1 Emax (average; cAMP HBL) [% ^]
CCCC[C@H](NC(C)=O)C(=O)N[C@H]1CCC(=O)NCC[C@@H](C(=O)N[C@@H](Cc2c[nH]c3ccccc23)C(N)=O)NC(=O)[C@H](CCCNC(=N)N)NC(=O)[C@@H](Cc2ccccc2)NC(=O)[C@H](CCN)NC1=O [Example 9.54, Ac-Nle-cyclo(Glu-Dab-D-Phe-Arg-Dab)-Trp-NH2] | 108
CCCC[C@H](NC(C)=O)C(=O)N[C@H]1CCC(=O)NCC[C@@H](C(=O)N[C@@H](Cc2c[nH]c3ccccc23)C(N)=O)NC(=O)[C@H](CCCNC(=N)N)NC(=O)[C@@H](Cc2ccccc2)NC(=O)[C@H](CCCCN)NC1=O [Example 9.53, Ac-Nle-cyclo(Glu-Lys-D-Phe-Arg-Dab)-Trp-NH2] | 108

Reference: patent publication US9447148B2, “Melanocortin-1 receptor-specific cyclic peptides” (Palatin Technologies, Inc., priority 2009, dated 2016)
